From patent publication US20240148723A1, “MYCOBACTERIUM TUBERCULOSIS COMPOSITIONS AND METHODS” (priority 2021, published 2024) come the findings set out here.

The test system of this test is M. tuberculosis. It counts as cell-based, Mycobacterium tuberculosis. The settings on record: pH 6.8.

Values after ≈ are worked out from the molar mass of the structure shown. Some results are limits rather than exact numbers.

For the molecule `O=[N+]([O-])c1ccc(Sc2cccc[n+]2[O-])c2nonc12` [compound 228155], the “MIC in the media 7H9” value was no less than 0.93 µg/mL, the “MIC in the media L-Ala” value was 0.93 µg/mL (≈ 3.2 µM), the “MIC in the media SBA” value was found to be 0.93 µg/mL (≈ 3.2 µM) and the “MIC in the media SLac” value stood at 0.93 µg/mL (≈ 3.2 µM).

Regarding `Cn1ccc(=Nc2ccc(NC(=O)c3ccc(N=c4ccn(C)c5ccc([N+](=O)[O-])cc45)cc3)cc2)cc1` [compound 260594], the “MIC in the media 7H9” value was no less than 0.81 µg/mL, the “MIC in the media L-Ala” value was 0.81 µg/mL (≈ 1.61 µM), the “MIC in the media SBA” value was determined as 1.61 µg/mL (≈ 3.19 µM) and the “MIC in the media SLac” value amounted to 0.40 µg/mL (≈ 0.793 µM).

Consider `CSc1ccc2c(c1)C(N1CCN(C)CC1)Cc1ccccc1S2.O=C(O)/C=C\C(=O)O` (stereo not shown) [compound 281816], for which the “MIC in the media 7H9” value is no less than 11.82 µg/mL, the “MIC in the media L-Ala” value was found to be 2.95 µg/mL, the “MIC in the media SBA” value worked out at 2.95 µg/mL and the “MIC in the media SLac” value was determined as 2.95 µg/mL.

As for `O=C1c2cccc3cc([N+](=O)[O-])cc(c23)C(=O)N1CCN1CCCC1` [compound 300289], the “MIC in the media 7H9” value was no less than 8.48 µg/mL, the “MIC in the media L-Ala” value is 4.24 µg/mL (≈ 12.5 µM), the “MIC in the media SBA” value was 2.12 µg/mL (≈ 6.25 µM) and the “MIC in the media SLac” value worked out at 2.12 µg/mL (≈ 6.25 µM).

On to `c1ccc2c(c1)Sc1ccccc1N2CC1CN2CCC1CC2` (stereo not shown) [compound 303612], for which the “MIC in the media 7H9” value was no less than 16.13 µg/mL, the “MIC in the media L-Ala” value turned out to be 8.06 µg/mL (≈ 25 µM), the “MIC in the media SBA” value was found to be 8.06 µg/mL (≈ 25 µM) and the “MIC in the media SLac” value turned out to be 4.03 µg/mL (≈ 12.5 µM).

`OC(c1cc(-c2ccc(C(F)(F)F)cc2)nc(C(F)(F)F)c1)C1CCCCN1` (stereo not shown) [compound 305798]: the “MIC in the media 7H9” value was no less than 10.11 µg/mL, the “MIC in the media L-Ala” value was 1.25 µg/mL (≈ 3.09 µM), the “MIC in the media SBA” value stood at 2.53 µg/mL (≈ 6.26 µM) and the “MIC in the media SLac” value was 2.53 µg/mL (≈ 6.26 µM).

In the case of `O=[N+]([O-])c1cnc(Sc2ccncn2)s1` [compound 311727], the “MIC in the media 7H9” value was no less than 24.03 µg/mL, the “MIC in the media L-Ala” value was found to be 0.77 µg/mL (≈ 3.2 µM), the “MIC in the media SBA” value is 0.77 µg/mL (≈ 3.2 µM) and the “MIC in the media SLac” value was found to be 0.77 µg/mL (≈ 3.2 µM).

As to `Cc1ccc(NCCN(C)C)c2c(=O)c3cc(O)ccc3sc12.I` [compound 317003], the “MIC in the media 7H9” value is no less than 5.70 µg/mL, the “MIC in the media L-Ala” value is 2.85 µg/mL, the “MIC in the media SBA” value stood at 2.85 µg/mL and the “MIC in the media SLac” value came out at 1.46 µg/mL.

With `COc1cccc2[nH]c(-c3ccccn3)nc12` [compound 320656], the “MIC in the media 7H9” value was no less than 45.06 µg/mL, the “MIC in the media L-Ala” value was determined as 5.63 µg/mL (≈ 25 µM), the “MIC in the media SBA” value came to 11.27 µg/mL (≈ 50 µM) and the “MIC in the media SLac” value turned out to be 1.41 µg/mL (≈ 6.26 µM).

On to `CS(=O)(=O)O.OC(c1cc(C(F)(F)F)nc2c(Cl)cc(Cl)cc12)C1CCCCN1` (stereo not shown) [compound 322661], for which the “MIC in the media 7H9” value was no less than 11.88 µg/mL, the “MIC in the media L-Ala” value turned out to be 2.97 µg/mL, the “MIC in the media SBA” value worked out at 1.52 µg/mL and the “MIC in the media SLac” value worked out at 2.97 µg/mL.

Regarding `NC1(N2SC(S)=C3CCCC=C32)CCCCC1` [compound 327444], the “MIC in the media 7H9” value was no less than 26.84 µg/mL, the “MIC in the media L-Ala” value was 6.71 µg/mL (≈ 25 µM), the “MIC in the media SBA” value worked out at 13.42 µg/mL (≈ 50 µM) and the “MIC in the media SLac” value stood at 3.36 µg/mL (≈ 12.5 µM).

For `Cc1cc(C(C#N)c2ccc(Cl)cc2)c(Cl)cc1NC(=O)c1cc(I)cc(I)c1O` (stereo not shown) [compound 335306], the “MIC in the media 7H9” value was no less than 66.31 µg/mL, the “MIC in the media L-Ala” value was 4.14 µg/mL (≈ 6.24 µM), the “MIC in the media SBA” value amounted to 4.14 µg/mL (≈ 6.24 µM) and the “MIC in the media SLac” value came out at 4.14 µg/mL (≈ 6.24 µM).

For the molecule `Oc1c(N=Nc2nn[nH]n2)ccc2ccccc12` [compound 338106], the “MIC in the media 7H9” value is no less than 3.00 µg/mL, the “MIC in the media L-Ala” value was determined as 1.50 µg/mL (≈ 6.24 µM), the “MIC in the media SBA” value amounted to 1.50 µg/mL (≈ 6.24 µM) and the “MIC in the media SLac” value stood at 0.77 µg/mL (≈ 3.21 µM).
